Source: PubChem BioAssay (NCI)
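Five compound concentrations were applied to cells in 96-well plates for 48 hours; endpoints were derived by simple linear interpolation of the resulting dose-response curve. GI50 is the concentration that inhibits growth by half. TGI marks complete inhibition of growth.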

What was measured:
Assay in all cases: NCI anticancer screen, dose series, 48 h
PC-3 prostate = system: PC-3 prostate
CCRF-CEM leukemia = system: CCRF-CEM leukemia
RPMI-8226 leukemia = system: RPMI-8226 leukemia
TK-10 renal = system: TK-10 renal
U251 CNS = system: U251 CNS
OVCAR-3 ovarian = system: OVCAR-3 ovarian
786-0 renal = system: 786-0 renal
UACC-62 melanoma = system: UACC-62 melanoma
LOX IMVI melanoma = system: LOX IMVI melanoma
T-47D breast = system: T-47D breast

Compound	GI50 (PC-3 prostate) [µM]	TGI (PC-3 prostate) [µM]	GI50 (CCRF-CEM leukemia) [µM]	TGI (CCRF-CEM leukemia) [µM]	GI50 (RPMI-8226 leukemia) [µM]	TGI (RPMI-8226 leukemia) [µM]	GI50 (TK-10 renal) [µM]	TGI (TK-10 renal) [µM]	GI50 (U251 CNS) [µM]	TGI (U251 CNS) [µM]	GI50 (OVCAR-3 ovarian) [µM]	TGI (OVCAR-3 ovarian) [µM]	GI50 (786-0 renal) [µM]	TGI (786-0 renal) [µM]	GI50 (UACC-62 melanoma) [µM]	TGI (UACC-62 melanoma) [µM]	GI50 (LOX IMVI melanoma) [µM]	TGI (LOX IMVI melanoma) [µM]	GI50 (T-47D breast) [µM]	TGI (T-47D breast) [µM]
C=C(C)[C@@H]1CC[C@]2(COC(=O)c3ccccc3C(=O)O)CC[C@]3(C)[C@H](CC[C@@H]4[C@@]5(C)CC[C@H](OC(=O)c6ccccc6C(=O)O)C(C)(C)[C@@H]5CC[C@]43C)[C@@H]12	34.6	> 100	30.5	> 100	14.8	> 100	24.8	63.3	23.1	77.7	17.5	49.3	31.6	> 100	16.6	> 100	24.6	> 100	19.7	75.8
O=C1c2ccccc2-c2c1c1ccc3ccccc3c1n2-c1ccccc1	35.7	> 100	> 100	> 100	65.1	> 100	20.6	44.7	18.9	35.7	24.6	57.6	25.3	53.9	20.4	44.2	39	> 100	12.7	41.5
CCCCc1n(Cc2ccc3ccccc3n2)cc[n+]1Cc1ccc2ccccc2c1	0.786	2.5	1.04	4.61	0.265	1.36	1.49	3.69	0.661	2.06	0.541	2.03	1.6	3.89	0.579	1.86	0.736	1.95	0.337	2.57
COc1ccccc1CNC(=O)/C=C/c1ccc(O)c(O)c1	> 100	> 100	18.2	> 100	34.7	> 100	17.9	> 100	42	> 100	67.3	> 100	76.1	> 100	34.8	> 100	26.3	> 100	43.4	> 100
O=C(Oc1c(Cl)c(Cl)c(Cl)c(Cl)c1Cl)C1CCCN1C(=O)OCc1ccccc1 (stereo unspecified)	2.95	11.6	3.01	14.3	2.45	6.83	3.13	8.85	3.34	12.6	3.27	9.84	3.94	14.2	3.24	12.6	2.85	8.6	2.79	11.3
CCC1C[N+]2=C(c3cc(OC)c(OC)cc3CC2)c2c1cc1n2CCc2cc(OC)c(OC)cc2-1 (stereo unspecified)	2.5	33.1	3.68	42.4	0.576	15	6.84	21.1	2.25	14.5	1	10.8	11	30.1	1.93	6.03	3.72	23.2	0.746	5.51
COC(=O)[C@]12CC[C@@H](C)[C@H](C)[C@@H]1C1=CC[C@@H]3[C@@]4(C)C(C=O)=C[C@@](C)(COC(=O)c5ccco5)C4=CC[C@@]3(C)[C@]1(C)CC2	2.97	> 100	2.87	8.73	1.49	5.01	2.42	12.5	2.06	10.8	2.17	4.76	2.97	9.17	0.0831	2.24	1.7	3.15	2.68	38.2
COC(=O)C(Br)(C(=O)OC)C(Br)C(Br)C(Br)c1ccccc1 (stereo unspecified)	4.58	17.3	2	7.21	2.97	9.34	2.35	6.19	3.99	10.6	1.72	3.11	2.72	6.7	2.28	6.56	1.85	3.66	2.47	8.06
COc1ccc(-n2nc(C(=O)NCC(=O)Nc3nc4cc(OC)ccc4s3)c3ccccc3c2=O)cc1	1.26	–	> 100	> 100	–	> 100	0.389	1.52	0.448	1.73	0.85	–	1.96	8.19	1.76	–	0.413	1.97	0.927	5.81
COc1cc2c3c(n(CCCN=[N+]=[N-])c(=O)c2cc1OC)-c1ccc(NC(C)=O)cc1C3=O	> 50	> 50	> 50	> 50	> 50	> 50	> 50	> 50	> 50	> 50	> 50	> 50	> 50	> 50	> 50	> 50	> 50	> 50	> 50	> 50
COc1ccc2cn3c4ccc(O)cc4[nH]c(=O)c3c2c1	0.131	16.9	0.0845	12.2	0.308	7.93	2.19	8.08	0.153	12.4	0.0474	7.08	0.278	13.4	0.58	18.1	0.101	4.93	0.573	24.1
Cc1nc2sc(C(=O)Nc3cccc(Cl)c3C)c(N)c2cc1C(O)c1ccccc1 (stereo unspecified)	0.0439	24.4	0.0392	> 100	0.0388	3.05	2.04	25.6	0.039	13.8	0.0351	1.14	0.0667	9.51	0.087	12	0.0599	10.9	0.0396	57.6
CN1CCC(n2cnc(-c3ccc(F)cc3)c2-c2ccnc(Nc3ccccc3)n2)CC1	12.2	> 25	12.1	> 25	> 20.8	> 25	2.34	> 25	6.7	> 25	7.65	> 25	8.4	> 25	6.54	> 23	5.78	> 25	6.85	> 25
